Experimental data published in patent US20260216166A1, “COMPOUND FOR TREATMENT OF ERECTILE DYSFUNCTION” (Initiator Pharma A/S, priority 2023, published 2026).
Entries after “also recorded” stand apart in the source; their conditions may differ.

Key:
anaesthetized rats = assay: Intracavernous pressure / spontaneous erections in anaesthetized rats; type: in vivo, rat
Method: For in vivo erectile physiology studies, rats were anaesthetized with pentobarbital sodium (Sygehus Apoteket, Aarhus, Denmark; 50 mg/kg) given intraperitoneally. During the experiment, the rats breathed spontaneously; the body temperature was monitored continuously and was maintained at 37° C. With a midline incision in the perineum, the base of the penis, enclosed by striated muscles, was exposed. The ischiocavernous muscle covering the crus corpus cavernosum was divided on one side, and entrance to the underlying tunica albuginea was given. A 25-gauge needle attached to a heparinized (100 IE ml-1) polyethylene catheter was inserted into the crus corpus cavernosum to measure intracavernous pressure (ICP). A heparinized polyethylene catheter (PE 50) was introduced into the carotid artery to measure mean arterial pressure (MAP). Continuous direct measurements of MAP and ICP were performed with transducers (Disposable BP Transducer, ADInstruments, UK), and registered and analysed on a computerized data acquisition system (PowerLab, ADInstruments).
A stabilizing period of 20-30 min was allowed before registration of basal ICP and MAP. Through a lower abdominal incision, the cavernous nerve was isolated at the lateral aspect of the prostate, and electrical stimulation was performed with a slender bipolar platinum electrode, which was connected to a S48 stimulator (Grass Instrument Co., Boston, MA, U.S.A.). To measure the maximum amplitude of the erectile response, a first stimulation of the cavernous nerve (square wave pulses of 6 Volts, 10 Hz, 1 ms pulse duration for 30 s) was performed.
IP2015, sildenafil, clozapine or vehicle were administered by injection in the jugular vein in volumes of maximum 200 μl. […] The observation period of spontaneous erection after injection of IP2015 was 30 min. Clozapine (1 mg/kg) or sildenafil (1 mg/kg) were administered 30 or 10 min prior to 1 mg/kg IP2015 injection, respectively. One group was injected with vehicle alone.
To investigate the involvement of proximal neuronal pathways in the effect of IP2015, mechanical denervation was performed. For mechanical denervation the isolated cavernous nerve was cut distal to the major pelvic ganglion. Absence of erectile response to electrical stimulation verified the efficacy of mechanical denervation.

diabetic db/db mice = assay: Erectile responses in type 2 diabetic db/db mice; type: in vivo, mouse; settings: intravenous infusion 1 mg/kg, n=7, versus vehicle
Method: FIG. 1. Original traces show increased intracavernosal pressure induced by the cavernous nerve's electrical field stimulation (EFS). […] E-G) Frequency, duration, and magnitude of spontaneous erections after intravenous infusion of vehicle, IP2015 0.1 mg/kg, 1 mg/kg, or 10 mg/kg. The effect on EFS is reported in the supplementary data file. (H-J) Intravenous infusion of vehicle and IP2015 (1 mg/kg) in diabetic db/db mice. IP2015 increased H) frequency, I) duration and J) the magnitude of spontaneous erectile responses in db/db mice (n=7). The results are means±s.e.mean. *P<0.05 versus vehicle control.
To investigate the effects of IP2015 in a simple model of erectile dysfunction, before dissecting its underlying pharmacology in vivo, we assessed its effects in a type-2 diabetic mouse model. Type 2 diabetic db/db mice have decreased erectile function compared to normal C57BL/6 mice and heterozygous db/+ control mice.

[1] = test system: male subjects with erectile dysfunction (ED); assay: Treatment-emergent adverse events after repeat single oral doses in male subjects with ED; type: in vivo, human
Method: Treatment-related adverse events are adverse events which could either be possibly or probably related to the treatment.
130 subjects were divided into 3 groups upon which the study was conducted in parallel. Each subject was dosed on four occasions with either 5 mg IP2015, 10 mg IP2015 or matched placebo. In each group, subjects were randomised evenly to each of the three study treatments and received the same treatment at each visit.
There were three potential study treatments of 5 mg IP2015, 10 mg IP2015 or matched placebo. In each group, subjects were randomised evenly to each of the three study treatments and received the same treatment on each visit. IP2015 or matched placebo was administered once in the morning of Week 1 (Day 1), Week 2, Week 3, and Week 4 as an oral solution in the fasted state. The dose was taken with 240 ml of water at room temperature. Subjects had fasted 2 hours prior to dosing until 4 hours postdose. Water was allowed ad libitum except for 1 hour before and 1 hour after dosing.
(§1) Efficacy was assessed through the International Index of Erectile Function (IIEF)-15 questionnaire. The change from baseline in responses to questions of the IIEF-15 questionnaire, including questions regarding erectile function, orgasmic function, sexual desire, intercourse satisfaction and overall satisfaction domain scores, was determined at different time points of the study. RigiScan assessments during the stimulus assessment, and sperm count and motility by semen sample collection was used for efficacy evaluation. Safety was assessed through AE reporting, 12-lead ECG, vital signs, physical examinations and clinical laboratory evaluations. Pharmacokinetics was assessed by blood sampling.

[2] = Plasma concentrations after repeat single oral doses in male subjects with ED; type: in vivo, human; settings: 5 mg and 10 mg; Week 1 and Week 4
Method: On Day-7, and at the Week 1 (Day 1), Week 2, Week 3, Week 4 and Follow-up visits, all groups were asked to complete the IIEF-15 questionnaire. Group 2 was asked to complete a Visual Stimulation Assessment using a RigiScan Plus Monitor on Day-7, Week 1 (Day 1) and Week 4. Group 2 was also required to provide blood samples for pharmacokinetic assessment on Week 1 (Day 1) and Week 4. Group 3 was required to provide semen samples on Day-7 and Week 4.
as §1

COc1cc2ccc(OC3CC4CCC(C3)N4)cc2oc1=O (centres unmarked) [IP2015, 7-[(8-azabicyclo[3.2.1]octan-3-yl)oxy]-3-methoxy-chromen-2-one]
intracavernosal pressure (anaesthetized rats; anaesthetized rats, 0.1, 1, and 10 mg/kg in the jugular vein, in contrast to vehicle): induced transient increases in intracavernosal pressure corresponding to erections; also recorded: dose-dependent increases in intracavernous pressure | responses to electrical field stimulation (EFS) of the cavernous nerve (anaesthetized rats; anaesthetized rats, IP2015 administration): without changing the responses to EFS | magnitude of erectile responses, ICP increases as percentage of MAP (anaesthetized rats; anaesthetized rats, compared to vehicle): significantly increased compared to vehicle | frequency, duration, and magnitude of spontaneous erections (anaesthetized rats; anaesthetized rats, i.v. 0.1, 1, 10 mg/kg): dose-dependently increased the number and the duration of spontaneous erections | IP2015-induced erectile responses after cutting the cavernosal nerve (anaesthetized rats; anaesthetized rats, mechanical denervation): inhibited | penile pressure (anaesthetized rats; direct intracavernosal injection): increased penile pressure | frequency, duration, and magnitude of erectile responses (diabetic db/db mice): significantly increased the frequency, duration, and magnitude of erectile responses; also recorded: increased the number of erections | Any TEAE, number of events ([1]; 5 mg, N = 42): 61 | Any TEAE, subjects (%) ([1]; 5 mg, N = 42): 32 (76.2%) | Dizziness, number of events ([1]; 5 mg, N = 42): 3 | Dizziness, subjects (%) ([1]; 5 mg, N = 42): 3 (7.1%) | Headache, number of events ([1]; 5 mg, N = 42): 15 | Headache, subjects (%) ([1]; 5 mg, N = 42): 11 (26.2%) | Mild TEAE, number of events ([1]; 5 mg, N = 42): 56 | Mild TEAE, subjects (%) ([1]; 5 mg, N = 42): 29 (69.0%) | Moderate TEAE, number of events ([1]; 5 mg, N = 42): 5 | Moderate TEAE, subjects (%) ([1]; 5 mg, N = 42): 3 (7.1%) | Nausea, number of events ([1]; 5 mg, N = 42): 1 | Nausea, subjects (%) ([1]; 5 mg, N = 42): 1 (2.4%) | Related TEAE, number of events ([1]; 5 mg, N = 42): 19 | Related TEAE, subjects (%) ([1]; 5 mg, N = 42): 10 (23.8%) | Severe TEAE ([1]; 5 mg, N = 42): 0 | TEAEs, high dose compared to low dose ([1]; 10 mg versus 5 mg): slightly increased in the high dose compared to the low dose | Any TEAE, number of events ([1]; 10 mg, N = 43): 141 | Any TEAE, subjects (%) ([1]; 10 mg, N = 43): 34 (79.1%) | Dizziness, number of events ([1]; 10 mg, N = 43): 15 | Dizziness, subjects (%) ([1]; 10 mg, N = 43): 12 (27.9%) | Headache, number of events ([1]; 10 mg, N = 43): 27 | Headache, subjects (%) ([1]; 10 mg, N = 43): 16 (37.2%) | Mild TEAE, number of events ([1]; 10 mg, N = 43): 132 | Mild TEAE, subjects (%) ([1]; 10 mg, N = 43): 33 (76.7%) | Moderate TEAE, number of events ([1]; 10 mg, N = 43): 9 | Moderate TEAE, subjects (%) ([1]; 10 mg, N = 43): 7 (16.3%) | Nausea, number of events ([1]; 10 mg, N = 43): 15 | Nausea, subjects (%) ([1]; 10 mg, N = 43): 8 (18.6%) | Related TEAE, number of events ([1]; 10 mg, N = 43): 84 | Related TEAE, subjects (%) ([1]; 10 mg, N = 43): 23 (53.5%) | Severe TEAE ([1]; 10 mg, N = 43): 0 | severe side effects ([1]; any of the doses (5 mg, 10 mg)): No severe side effects were observed; also recorded: No severe TEAEs were present | treatment-emergent adverse effects versus placebo group ([1]; low-dose (5 mg)): comparable to the placebo group | relation of plasma concentrations to dose [2]: linear relation of plasma concentrations to dose
